Experimental data published in patent publication US4347319A, “Microbiological epoxidation process” (priority 1980, dated 1982).
Like-named read-outs stand apart in the source and are kept apart here.

How the values were obtained:
[1] = test system: Methylobacter vinelandii (CRL M5Y) NRRL B-11,218; assay: Oxidation by washed cell suspensions of methane-grown cells; type: cell-based; conditions: for Oxidative Conversion Rates: methane-grown washed cells, 30° C., methane to methanol, alkene to 1,2-epoxide
In short: (§1)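 Products were quantified by gas chromatography (flame ionization) in headspace/liquid samples taken periodically from sealed vials. Each vial held 2 mg washed methane-grown cells in 0.15 M phosphate pH 7.0 under a 1:1 substrate/oxygen gas phase, shaken at 30 °C.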

[2] = test system: Methylomonas agile (CRL 22 PM9) NRRL B-11,209; assay: as above; type: cell-based
In short: as §1

[3] = test system: Methylobacter bovis (CRL 19 PM5) NRRL B-11,217; assay: as above; type: cell-based
In short: as §1

[4] = test system: Methylomonas streptobacterium (CRL 17 PM3) NRRL B-11,208; assay: as above; type: cell-based
In short: as §1

[5] = test system: Methylococcus capsulatus (CRL 25 PM13) NRRL B-11,221; assay: as above; type: cell-based
In short: as §1

[6] = molecular target: T1, cell fractions of Methylosinus trichosporium (OB3b, NRRL B-11,196) (Methylosinus trichosporium, UniProt Q50541+Q9KX50+Q9KX51); type: biochemical; conditions: for Conversion Rate: particulate P(40) fraction, n-propane to 2-propanol, n-butane to 2-butanol; for Oxidizing Activity (rate of oxidation) in cell fraction: propylene to propylene oxide, methane to methanol, 30° C.; for % Distribution in Cell Fraction: propylene-epoxidizing / methane-hydroxylating activity
T1 sequence (Q9KX50 40-431): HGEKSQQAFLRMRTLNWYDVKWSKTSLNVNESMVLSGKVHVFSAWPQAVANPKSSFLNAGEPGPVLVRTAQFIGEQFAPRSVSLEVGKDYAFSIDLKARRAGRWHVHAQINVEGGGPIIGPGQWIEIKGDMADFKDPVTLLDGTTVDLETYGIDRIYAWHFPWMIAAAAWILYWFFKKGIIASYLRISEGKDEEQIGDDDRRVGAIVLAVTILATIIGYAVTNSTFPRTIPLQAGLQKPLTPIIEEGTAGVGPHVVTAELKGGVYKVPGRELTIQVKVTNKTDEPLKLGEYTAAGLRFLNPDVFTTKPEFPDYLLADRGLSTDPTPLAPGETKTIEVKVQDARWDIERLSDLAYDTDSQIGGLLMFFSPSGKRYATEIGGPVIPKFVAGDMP
T1 sequence (Q50541 1-252): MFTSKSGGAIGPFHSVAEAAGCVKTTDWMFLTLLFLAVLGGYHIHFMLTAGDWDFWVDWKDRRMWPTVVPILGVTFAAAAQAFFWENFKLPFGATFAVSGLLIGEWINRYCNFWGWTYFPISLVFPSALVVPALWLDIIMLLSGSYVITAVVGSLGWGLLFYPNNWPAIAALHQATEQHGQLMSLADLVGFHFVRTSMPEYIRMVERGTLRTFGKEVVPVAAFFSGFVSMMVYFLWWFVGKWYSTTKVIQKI
T1 sequence (Q9KX51 1-256): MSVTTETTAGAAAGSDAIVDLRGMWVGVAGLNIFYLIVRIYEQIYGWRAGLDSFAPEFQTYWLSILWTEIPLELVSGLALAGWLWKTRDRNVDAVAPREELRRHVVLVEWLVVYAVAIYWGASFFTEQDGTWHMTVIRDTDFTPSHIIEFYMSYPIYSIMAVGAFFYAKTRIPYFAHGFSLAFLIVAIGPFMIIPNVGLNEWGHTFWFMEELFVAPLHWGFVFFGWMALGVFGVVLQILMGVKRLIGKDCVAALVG
Procedure: Cells were washed twice with 25 mM potassium phosphate buffer, pH 7.0 containing 5 mM MgCl2. Cells were suspended in the same buffer. The cell suspensions at 4° C. were disintegrated by a single passage through a French Pressure cell (15,000 lb./in.^2) and centrifuged at 5000×g. for 15 min. to remove unbroken bacteria. The supernatant solution (crude extract) was then centrifuged at 40,000×g. for 30 min., yielding particulate P(40) and soluble S(40) fractions. The S(40) fraction was subsequently centrifuged at 80,000×g. for 60 min., yielding particulate P(80) and soluble S(80) fractions. The particulate fractions [P(40) and P(80)] were suspended in 25 mM potassium phosphate buffer, pH 7.0, containing 5 mM MgCl2 and homogenized at 4° C.
The oxidation of methane and propylene by particulate [(P)40 and (P)80] fractions and soluble [S(80)] fraction was measured at 30° C. by estimating the production of methanol and propylene oxide, respectively. The reaction mixtures contained in […]: 150 mM potassium phosphate buffer, pH 7.0 containing 5 mM MgCl2 b, 0.6 ml; 10μ moles NADH, and cellular fraction.
Reaction mixtures were contained in 10 ml vials at 4° C. Vials were sealed with rubber caps. The gaseous phase in the vials was removed using vacuum and then was replaced with a gas mixture of methane or propylene and oxygen at a 1:1, v/v ratio. Oxidation of other gaseous n-alkanes and n-alkanes was examined as described above. For liquid substrates, 10 μl of substrate was used directly.
The products of epoxidation of n-alkenes and hydroxylation of n-alkanes were assayed by flame ionization gas chromatography using a stainless steel column (12'×1/8") packed with 10% Carbowax 20 M on 80/100 Chromosorb W and Porapak Q column. The column temperature was maintained isothermally at 120° C. The carrier gas flow rate was 30 ml/min. of helium. The various products were identified by retention time comparisons and co-chromatography with authentic standards.
Specific activities were expressed as μ moles of products formed per hour per mg. protein. Concentrations of protein in various fractions were determined by the method of Lowry et al., J. Biol. Chem., 193: 265-275 (1951).

[7] = methane-grown cells, 2-butanol to 2-butanone
[8] = methane-grown washed cells, 30° C., methane to methanol, alkene to 1,2-epoxide

SMILES | Oxidative Conversion Rates [2, 8] [μmole/hr/mg protein] | Oxidative Conversion Rates [3, 8] [μmole/hr/mg protein] | Oxidative Conversion Rates [4, 8] [μmole/hr/mg protein] | Oxidative Conversion Rates [5, 8] [μmole/hr/mg protein] | Conversion Rate [6] | Oxidative Conversion Rates [1] [μmole/hr/mg protein] | Oxidizing Activity (rate of oxidation) in cell fraction ([6]; P(40)) | % Distribution in Cell Fraction ([6]; P(40)) [%] | Oxidizing Activity (rate of oxidation) in cell fraction ([6]; P(80)) | % Distribution in Cell Fraction ([6]; P(80)) [%] | also measured
CCC(C)O (stereo not shown) [2-Butanol] |  |  |  |  |  |  |  |  |  |  | Conversion Rate to Ketone, 2 hrs. [1, 7]: 2 μmole/2 mg protein; Conversion Rate to Ketone, 20 hrs. [1, 7]: 18 μmole/2 mg protein
C=CC=C [Butadiene] | 2.0 | 2.3 | 2.6 | 2.5 |  |  |  |  |  |  | 
CCCC [Butane] |  |  |  |  | 0.79 μmoles/hr/2.0mg. of protein |  |  |  |  |  | Conversion Rate [4]: 1.2 μmoles/hr/^5 mg. protein
C [Methane] |  |  |  |  |  | 0.9 | 3.1 μ moles of products formed per | 83 | 3.0 μ moles of products formed per | 13 | Oxidative Conversion Rates [2]: 0.6; Oxidative Conversion Rates [3]: 2.0; Oxidative Conversion Rates [4]: 1.1; Oxidative Conversion Rates [5]: 2.1
CCC [Propane] |  |  |  |  | 1.32 μmoles/hr/2.0mg. of protein |  |  |  |  |  | Conversion Rate ([4]; growth substrate Methane, n-alkane to secondary alcohol): 1.6 μmoles/hr/^5 mg. protein
C=CC [Propylene] | 1.6 | 2.2 | 1.0 | 1.2 |  | 1.9 | 2.8 μ moles of products formed per | 82 | 2.5 μ moles of products formed per | 18 | 
